Reference: US11434241B2, “Pyrimidine derivatives for prevention and treatment of bacterial infections” (UNIVERSITE DE LIEGE, priority 2018, dated 2022)
In brackets after ≈: the same amount, converted by molar mass. Read-outs that look alike come from different tables or passages of the source.

Key:
[1] = test system: methicillin-resistant S. aureus (MRSA) ATCC BAA-1556; experiment: MIC determination on methicillin-resistant S. aureus; type: cell-based, Staphylococcus aureus; conditions: for MIC: Staphylococcus aureus; for antibacterial activity against MRSA (in words): MHB medium
Protocol: (§1) Further experiments are conducted using different strains of S. aureus, as clinically relevant Gram-positive bacterial strains: S. aureus ATCC 25904, methicillin-resistant S. aureus (MRSA) ATCC BAA-1556, Glycopeptide intermediate-resistant (GISA) S. aureus Mu-50 (ATCC 700695) in order to determine the Minimal Inhibitory Concentration (MIC) which is the minimal concentration required to prevent bacterial growth. The bioluminescent strain S. aureus Xen29 (ATCC 12600) was also used. This strain is derived from the parental strain S. aureus ATCC 12600, a pleural fluid isolate, which is also designated as NCTC8532.
(§2) A single colony selected from the different strains of S. aureus is resuspended and cultured in brain heart infusion (BHI) broth overnight (O/N) in aerobic conditions (37° C. with 220 rpm shaking), next day a 1:100 inoculum in Mueller-Hinton broth (MHB) is incubated in aerobic conditions for 3 hr (=OD0.08-0.1) and an inoculum of 1:300 dilution, corresponding to 3×10^5 CFU/ml, is incubated in presence or absence of different concentrations of the tested molecules in 1% DMSO. After O/N growth the OD of each culture was measured at 600 nm (OD600) in a spectrophotometer (Victor 3-Perkin Elmer). The MIC represents the concentration at which there is no visible growth of bacteria, i.e. ΔOD at 600 nm equal to zero (blank is the medium alone). […] The MIC of molecule 2329 against Glycopeptide intermediate-resistant (GISA) S. aureus Mu-50 (ATCC 700695) is in between 25 and 30 μM, while it is above 50 μM for molecules 2348, 2412, and 2452.
(§3) Further experiments are conducted using different strains of S. aureus, as clinically relevant Gram-positive bacterial strains: methicillin-resistant S. aureus (MRSA) ATCC BAA-1556 and S. aureus Xen29 (Perkin Elmer ATCC 12600).
(§4) To determine the MIC of the above mentioned molecules in MRSA or in Xen29, a single colony of MRSA or Xen29 is resuspended and cultured in brain heart infusion (BHI) broth overnight (O/N) in aerobic conditions (37° C. with 220 rpm shaking), next day a 1:100 inoculum in Mueller-Hinton broth (MHB) is incubated in aerobic conditions for 3 hr (OD=0.08-0.1) and an inoculum of 1:300 dilution, corresponding to 3×10^5 CFU/ml, is incubated in presence or absence of different concentrations of the tested molecules in 1% DMSO. After O/N growth the OD of each culture was measured at 600 nm (OD600) in a spectrophotometer (Victor 3-Perkin Elmer). The MIC represents the concentration at which there is no visible growth of bacteria, i.e. ΔOD at 600 nm equal to zero (blank is the medium alone).
(§5) Molecule 36z has been tested for its potential antibacterial activity by determining its minimal inhibitory concentration (MIC) according to protocols recommended by EUCAST to assess the efficacy of antibiotics against bacterial strains. In brief MIC in MRSA (ATCC BAA-1556) or in Xen29 (Perkin Elmer-ATCC 12600) for 36z (molecule 25 in WO2009/034386) was determined by culturing a single colony of MRSA or Xen29 in brain heart infusion (BHI) broth overnight (O/N) in aerobic conditions (37° C. with 220 rpm shaking), while MIC for MRSE (ATCC 35984) was determined by culturing MRSE in TSB O/N. Next day a 1:100 inoculum in Mueller-Hinton broth (MHB) is incubated in aerobic conditions for 3 hr (OD=0.08-0.1) and an inoculum of 1:300 dilution, corresponding to 3×10^5 CFU/ml, is incubated in presence or absence of different concentrations of the tested molecules in 1% DMSO. After O/N growth the OD of each culture was measured at 600 nm (OD600) in a spectrophotometer (Victor 3-Perkin Elmer). The MIC represents the concentration at which there is no visible growth of bacteria, i.e. ΔOD at 600 nm equal to zero (blank is the medium alone). No antibacterial activity was found against MRSA (ATCC BAA-1556), Xen29 (Perkin Elmer-ATCC 12600 or MRSE (ATCC 35984) strains when the molecule was used at concentrations up to 200 μM.

[2] = test system: Staphylococcus epidermidis (ATCC 35984, also known as RP62A or MRSE); experiment: MIC determination on S. epidermidis (EUCAST, OD600 after overnight growth in MHB); type: cell-based
Protocol: The Minimal Inhibitory Concentration (MIC) of molecules 2329, 2348, 2412, 2452 and 2461 was determined on Staphylococcus epidermidis (ATCC 35984, also known as RP62A) according to EUCAST (European Committee on Antimicrobial Susceptibility Testing) recommendations.
Briefly, a single colony grown on a Tryptic Soy Agar (TSA) plate was resuspended and cultured in Tryptic Soy Broth (TSB) overnight (O/N) in aerobic conditions (37° C. with 220 rpm shaking), next day a 1:50 inoculum in Mueller-Hinton broth (MHB) was incubated in aerobic conditions for 3 hr and an inoculum of 1:100 dilution, corresponding to 3×10^5 CFU/ml, was incubated in presence or absence of different concentrations of the molecules in 1% DMSO (vehicle). After O/N growth the OD of each culture was measured at 600 nm in a spectrophotometer (OD600). The MIC represents the concentration at which there is no visible growth of bacteria, i.e. ΔOD at 600 nm equal to zero (blank is the medium alone).
The Minimal Inhibitory Concentration (MIC) of pyrazolopyrimidine molecules 2539, 2544, 2666,2676, 2693, 2783, 2784 and 2782 and of purine molecules 2498, 2511, 2525, 2527, 2833, and 2840 was determined on S. epidermidis (ATCC 35984, also known as RP62A or MRSE) according to EUCAST (European Committee on Antimicrobial Susceptibility Testing) recommendations.
Briefly, a single colony grown on an agar plate was resuspended and cultured in Triptic Soy Broth (TSB) medium overnight (O/N) in aerobic conditions (37° C. with 220 rpm shaking), next day a 1:50 inoculum in Mueller-Hinton broth (MHB) was incubated in aerobic conditions for 3 hr (OD=0.08-0.1) and an inoculum of 1:300 dilution, corresponding to 3×10^5 CFU/ml, was incubated in presence or absence of different concentrations of each of the molecules in 1% DMSO (vehicle). After O/N growth the OD of each culture was measured at 600 nm (600) in a spectrophotometer (Victor 3-Perkin Elmer). The MIC represents the concentration at which there is no visible growth of bacteria, i.e. ΔOD at 600 nm equal to zero (where ΔOD is the difference between the OD with the molecule and the OD of the blank, the medium alone).
as §5

[3] = test system: S. aureus Xen29 (ATCC 12600); experiment: MIC determination on bioluminescent S. aureus Xen29; type: cell-based, Staphylococcus aureus; conditions: for MIC: Staphylococcus aureus; for antibacterial activity / inhibition of Xen29 growth (in words): MHB medium
Protocol: as §1, §2, §3, §4, §5

[4] = Staphylococcus epidermidis, MHB medium, tested up to 100 μM, read-out: MIC MRSE
[5] = Staphylococcus epidermidis, read-out: MIC MRSE
[6] = MHB medium, tested up to 100 μM, hydrochloride, read-out: MIC MRSE

| Compound | MIC ([1]; read-out: MIC MRSA (comparison molecules of WO2009/034386)) [µM] | MIC ([2]; Staphylococcus epidermidis, read-out: MIC MRSE (comparison molecules of WO2009/034386)) [µM] | MIC ([3]; ATCC12600, read-out: MIC Xen29 (comparison molecules of WO2009/034386)) [µM] | antibacterial activity against MRSA (in words) [1] | MIC ([1]; read-out: MIC MRSA) [µM] | antibacterial activity / inhibition of MRSE growth (in words) ([2]; MHB medium) | MIC [2, 4] [µM] | antibacterial activity / inhibition of Xen29 growth (in words) [3] | MIC ([3]; ATCC12600, read-out: MIC Xen29) [µM] | MIC [2, 5] [µM] | MIC [2, 6] [µM] | MIC ([2]; MHB medium, tested up to 100 μM, read-out: MIC MRSE) [µM] |
| --- | --- | --- | --- | --- | --- | --- | --- | --- | --- | --- | --- | --- |
| CCCCOc1nc(NC2CC2)c2ncn(Cc3c(F)ccc(C)c3F)c2n1 [38z″, 2-Butoxy-N-cyclopropyl-9-(2,6-difluoro-3-methylbenzyl)-9H-purin-6-amine, reference compound] | > 200 | > 200 | > 200 | – | – | – | – | – | – | – | – | – |
| CSc1nc(N[C@@H]2C[C@H]2c2ccc(F)c(F)c2)c2ncn(C)c2n1 [Molecule 2498, N-((1R,2S)-2-(3,4-difluorophenyl)cyclopropyl)-9-methyl-2-(methylthio)-9H-purin-6-amine] | – | – | – | active | 30 (≈ 10.4 µg/mL) | able to inhibit MRSE growth | 60 (≈ 20.8 µg/mL) | able to inhibit | 30 (≈ 10.4 µg/mL) | – | – | – |
| CCSc1nc(N[C@@H]2C[C@H]2c2ccc(F)c(F)c2)c2ncn(C)c2n1 [Molecule 2525, N-((1R,2S)-2-(3,4-difluorophenyl)cyclopropyl)-2-(ethylthio)-9-methyl-9H-purin-6-amine] | – | – | – | active | 25 (≈ 9.04 µg/mL) | able to inhibit MRSE growth | 40 (≈ 14.5 µg/mL) | able to inhibit | 30 (≈ 10.8 µg/mL) | – | – | – |
| CCSc1nc(N[C@@H]2C[C@H]2c2ccc(F)c(F)c2)c2ncn(CC)c2n1 [Molecule 2527, N-((1R,2S)-2-(3,4-difluorophenyl)cyclopropyl)-9-ethyl-2-(ethylthio)-9H-purin-6-amine] | – | – | – | active | 25 (≈ 9.39 µg/mL) | able to inhibit MRSE growth | 25 (≈ 9.39 µg/mL) | able to inhibit | 30 (≈ 11.3 µg/mL) | – | – | – |
| CSc1nc(N[C@@H]2C[C@H]2c2ccc(F)c(F)c2)c2cnn(C)c2n1 [Molecule 2539, N-((1R,2S)-2-(3,4-difluorophenyl)cyclopropyl)-1-methyl-6-(methylthio)-1H-pyrazolo[3,4-d]pyrimidin-4-amine] | – | – | – | active | 25 (≈ 8.68 µg/mL) | able to inhibit MRSE growth | 50 (≈ 17.4 µg/mL) | able to inhibit | 30 (≈ 10.4 µg/mL) | – | – | – |
| CCn1ncc2c(N[C@@H]3C[C@H]3c3ccc(F)c(F)c3)nc(SC)nc21 [Molecule 2544, N-((1R,2S)-2-(3,4-difluorophenyl)cyclopropyl)-1-ethyl-6-(methylthio)-1H-pyrazolo[3,4-d]pyrimidin-4-amine] | – | – | – | active | 50 (≈ 18.1 µg/mL) | able to inhibit MRSE growth | 80 (≈ 28.9 µg/mL) | able to inhibit | 50 (≈ 18.1 µg/mL) | – | – | – |
| CSc1nc(N[C@@H]2C[C@H]2c2ccc(F)c(F)c2)c2cnn(C(C)C)c2n1.Cl [Molecule 2676, N-((1R,2S)-2-(3,4-difluorophenyl)cyclopropyl)-1-isopropyl-6-(methylthio)-1H-pyrazolo[3,4-d]pyrimidin-4-amine hydrochloride] | – | – | – | active | 20 | able to inhibit MRSE growth | – | – | > 100 | 50 | – | – |
| CCCSc1nc(N[C@@H]2C[C@H]2c2ccc(F)c(F)c2)c2cnn(C)c2n1.Cl [Molecule 2782, N-((1R,2S)-2-(3,4-difluorophenyl)cyclopropyl)-6-(propylthio)-1-methyl-1H-pyrazolo[3,4-d]pyrimidin-4-amine hydrochloride] | – | – | – | active | 25 | – | – | – | – | > 100 | >100 | – |
| CCSc1nc(N[C@@H]2C[C@H]2c2ccc(F)c(F)c2)c2cnn(CC)c2n1.Cl [Molecule 2783, N-((1R,2S)-2-(3,4-difluorophenyl)cyclopropyl)-6-(ethylthio)-1-ethyl-1H-pyrazolo[3,4-d]pyrimidin-4-amine hydrochloride] | – | – | – | active | 25 | – | – | – | – | > 100 | >100 | – |
| CCCSc1nc(N[C@@H]2C[C@H]2c2ccc(F)c(F)c2)c2cnn(CC)c2n1.Cl [Molecule 2784, N-((1R,2S)-2-(3,4-difluorophenyl)cyclopropyl)-6-(propylthio)-1-ethyl-1H-pyrazolo[3,4-d]pyrimidin-4-amine hydrochloride] | – | – | – | active | 50 | – | – | – | – | > 100 | >100 | – |
| CCCCSc1nc(N[C@@H]2C[C@H]2c2ccc(F)c(F)c2)c2ncn(CC)c2n1 [Molecule 2840, 2-(butylthio)-N-((1R,2S)-2-(3,4-difluorophenyl)cyclopropyl)-9-ethyl-9H-purin-6-amine] | – | – | – | active | 50 (≈ 20.2 µg/mL) | – | > 100 | – | – | – | – | >100 |
